{"source": "paper PMC8513935", "origin": "cited, not measured here", "key": {"[1]": {"experiment": "log P octanol/water from commercial databases, averaged (the ESI)", "settings": "Octanol (wet), 25 C"}, "[2]": {"experiment": "experimental, compiled by the authors from the literature (the ESI cites the sources)"}, "[3]": {"experiment": "derived by the authors as gas->solvent minus gas->water (a hypothetical dry solvent; the ESI), not a two-phase measurement"}}, "data": [{"compound": "CCCCCO", "values": [{"measurement": "log K of transfer, water to solvent", "setting": "[1]", "result": 1.51, "unit": "log10 K"}, {"measurement": "log K of transfer, gas to solvent", "setting": "[2]; 1,2-Dichloroethane, 25 C", "result": 4.07, "unit": "log10 K"}, {"measurement": "log K of transfer, gas to solvent", "setting": "[2]; 2-Methylpropan-1-ol, 25 C", "result": 5.02, "unit": "log10 K"}, {"measurement": "log K of transfer, gas to solvent", "setting": "[2]; 2-Methylpropan-2-ol, 25 C", "result": 5.1, "unit": "log10 K"}, {"measurement": "log K of transfer, gas to solvent", "setting": "[2]; Benzene, 25 C", "result": 3.74, "unit": "log10 K"}, {"measurement": "log K of transfer, gas to solvent", "setting": "[2]; Butan-1-ol, 25 C", "result": 4.96, "unit": "log10 K"}, {"measurement": "log K of transfer, gas to solvent", "setting": "[2]; CCl4, 25 C", "result": 3.75, "unit": "log10 K"}, {"measurement": "log K of transfer, gas to solvent", "setting": "[2]; Chlorobenzene, 25 C", "result": 3.85, "unit": "log10 K"}, {"measurement": "log K of transfer, gas to solvent", "setting": "[2]; Chloroform, 25 C", "result": 4.4, "unit": "log10 K"}, {"measurement": "log K of transfer, gas to solvent", "setting": "[2]; Cyclohexane, 25 C", "result": 2.94, "unit": "log10 K"}, {"measurement": "log K of transfer, gas to solvent", "setting": "[2]; Decan-1-ol, 25 C", "result": 4.68, "unit": "log10 K"}, {"measurement": "log K of transfer, gas to solvent", "setting": "[2]; Hexadecane, 25 C", "result": 3.1, "unit": "log10 K"}, {"measurement": "log K of transfer, gas to solvent", "setting": "[2]; Hexan-1-ol, 25 C", "result": 4.9, "unit": "log10 K"}, {"measurement": "log K of transfer, gas to solvent", "setting": "[2]; Hexane, 25 C", "result": 3.39, "unit": "log10 K"}, {"measurement": "log K of transfer, gas to solvent", "setting": "[2]; Methanol, 25 C", "result": 4.93, "unit": "log10 K"}, {"measurement": "log K of transfer, gas to solvent", "setting": "[2]; Octan-1-ol, 25 C", "result": 4.69, "unit": "log10 K"}, {"measurement": "log K of transfer, gas to solvent", "setting": "[2]; Pentan-1-ol, 25 C", "result": 4.95, "unit": "log10 K"}, {"measurement": "log K of transfer, gas to solvent", "setting": "[2]; Propan-1-ol, 25 C", "result": 4.97, "unit": "log10 K"}, {"measurement": "log K of transfer, gas to solvent", "setting": "[2]; Propan-2-ol, 25 C", "result": 5.01, "unit": "log10 K"}, {"measurement": "log K of transfer, gas to solvent", "setting": "[2]; Toluene, 25 C", "result": 3.79, "unit": "log10 K"}, {"measurement": "log K of transfer, gas to solvent", "setting": "[2]; Water, 25 C", "result": 3.35, "unit": "log10 K"}, {"measurement": "log K of transfer, water to solvent", "setting": "[3]; 1,2-Dichloroethane, 25 C", "result": 0.72, "unit": "log10 K"}, {"measurement": "log K of transfer, water to solvent", "setting": "[3]; 2-Methylpropan-1-ol, 25 C", "result": 1.67, "unit": "log10 K"}, {"measurement": "log K of transfer, water to solvent", "setting": "[3]; 2-Methylpropan-2-ol, 25 C", "result": 1.75, "unit": "log10 K"}, {"measurement": "log K of transfer, water to solvent", "setting": "[3]; Benzene, 25 C", "result": 0.39, "unit": "log10 K"}, {"measurement": "log K of transfer, water to solvent", "setting": "[3]; Butan-1-ol, 25 C", "result": 1.61, "unit": "log10 K"}, {"measurement": "log K of transfer, water to solvent", "setting": "[3]; CCl4, 25 C", "result": 0.4, "unit": "log10 K"}, {"measurement": "log K of transfer, water to solvent", "setting": "[3]; Chlorobenzene, 25 C", "result": 0.5, "unit": "log10 K"}, {"measurement": "log K of transfer, water to solvent", "setting": "[3]; Chloroform, 25 C", "result": 1.05, "unit": "log10 K"}, {"measurement": "log K of transfer, water to solvent", "setting": "[3]; Cyclohexane, 25 C", "result": -0.411, "unit": "log10 K"}, {"measurement": "log K of transfer, water to solvent", "setting": "[3]; Decan-1-ol, 25 C", "result": 1.33, "unit": "log10 K"}, {"measurement": "log K of transfer, water to solvent", "setting": "[3]; Hexadecane, 25 C", "result": -0.244, "unit": "log10 K"}, {"measurement": "log K of transfer, water to solvent", "setting": "[3]; Hexan-1-ol, 25 C", "result": 1.55, "unit": "log10 K"}, {"measurement": "log K of transfer, water to solvent", "setting": "[3]; Hexane, 25 C", "result": 0.037, "unit": "log10 K"}, {"measurement": "log K of transfer, water to solvent", "setting": "[3]; Methanol, 25 C", "result": 1.58, "unit": "log10 K"}, {"measurement": "log K of transfer, water to solvent", "setting": "[3]; Octan-1-ol(dry), 25 C", "result": 1.34, "unit": "log10 K"}, {"measurement": "log K of transfer, water to solvent", "setting": "[3]; Pentan-1-ol, 25 C", "result": 1.6, "unit": "log10 K"}, {"measurement": "log K of transfer, water to solvent", "setting": "[3]; Propan-1-ol, 25 C", "result": 1.62, "unit": "log10 K"}, {"measurement": "log K of transfer, water to solvent", "setting": "[3]; Propan-2-ol, 25 C", "result": 1.66, "unit": "log10 K"}, {"measurement": "log K of transfer, water to solvent", "setting": "[3]; Toluene, 25 C", "result": 0.44, "unit": "log10 K"}]}]}
